The text below walks through data of patent US20230062100A1, “SUBSTITUTED AMINOQUINOLONES AS DGKALPHA INHIBITORS FOR IMMUNE ACTIVATION” (Bayer Aktiengesellschaft, priority 2019, published 2023).

This assay deals with DGKα (Homo sapiens, UniProt P23743). Put plainly: Human DGKα kinase activity inhibition assay (ADP-Glo). The assay is classed as biochemical. As to conditions: in vitro human DGKα kinase activity inhibition assay. The procedure:
Human DGKα inhibitory activity of compounds of the present invention was quantified employing the human DGKα kinase activity assay as described in the following paragraphs. In essence, the enzyme activity was measured by quantification of the adenosine-di-phosphate (ADP) generated as a co-product of the enzyme reaction via the “ADP-Glo™ Kinase Assay” kit from the company Promega. This detection system works as follows: In a first step the ATP not consumed in the kinase reaction is quantitatively converted to cAMP employing an adenylate cyclase (“ADP-Glo-reagent”), then the adenylate cyclase is stopped and the ADP generated in the kinase reaction converted to ATP, which subsequently generates in a luciferase-based reaction a glow-luminescence signal (“Kinase Detection Reagent”). C-terminally FLAG-tagged, recombinant full-length human DGKα (expressed in baculovirus infected insect cells, purified using anti-Flag pulldown and size exclusion chromatography as described below, DGKα_hu_1) was used as enzyme. As substrate for the kinase 1,2-dioleoyl-sn-glycerol, reconstituted in octyl-β-D-glucopyranoside micelles, was used. For the preparation of the micelles, 1 volume of a 16.1 mM solution of 1,2-dioleoyl-sn-glycerol (Avanti, Cat. #O8001-25G) in chloroform was slowly evaporated using a nitrogen stream. Subsequently, 22.55 volumes of a 510 mM solution of octyl-β-D-glucopyranoside (Sigma-Aldrich, Cat. #O8001-10G) in 50 mM MOPS buffer (pH 7.4) were added, and the mixture was sonicated in an ultrasonic bath for 20 s. Then 35 volumes of 50 mM MOPS buffer (pH 7.4) were added to yield a solution of 0.28 mM 1,2 dioleoyl-sn-glycerol and 200 mM octyl-β-D-glucopyranoside, which was aliquoted, flash-frozen in liquid nitrogen, and stored at −20° C. until use. For each experiment, a fresh aliquot was quickly thawed and diluted 24-fold with aqueous assay buffer (described below) containing 95.7 μM adenosine triphosphate (Promega) to yield a 1.67-fold concentrated substrate solution. For the assay 50 nl of a 100-fold concentrated solution of the test compound in dimethyl sulfoxide (DMSO, Sigma) was pipetted into either a white 1536-well or a white low-volume 384-well microtiter plate (both Greiner Bio-One, Frickenhausen, Germany). […] The concentration of DGK a was adjusted depending of the activity of the enzyme lot and was chosen appropriate to have the assay in the linear range, a typical concentration is about 0.1 nM. The reaction was stopped by the addition of 2.5 μl of “ADP-Glo-reagent” (1 to 1.5 diluted with water) and the resulting mixture was incubated at 22° C. for 1 h to convert the ATP not consumed in the kinase reaction completely to cAMP. […] The amount of emitted light was taken as a measure for the amount of ADP generated and thereby for the activity of the DGKα.
For orientation: ADP-Glo first removes unused ATP, then detects ADP through luciferase.

Sequence of DGKα (P23743 with tags, fused parts or gaps): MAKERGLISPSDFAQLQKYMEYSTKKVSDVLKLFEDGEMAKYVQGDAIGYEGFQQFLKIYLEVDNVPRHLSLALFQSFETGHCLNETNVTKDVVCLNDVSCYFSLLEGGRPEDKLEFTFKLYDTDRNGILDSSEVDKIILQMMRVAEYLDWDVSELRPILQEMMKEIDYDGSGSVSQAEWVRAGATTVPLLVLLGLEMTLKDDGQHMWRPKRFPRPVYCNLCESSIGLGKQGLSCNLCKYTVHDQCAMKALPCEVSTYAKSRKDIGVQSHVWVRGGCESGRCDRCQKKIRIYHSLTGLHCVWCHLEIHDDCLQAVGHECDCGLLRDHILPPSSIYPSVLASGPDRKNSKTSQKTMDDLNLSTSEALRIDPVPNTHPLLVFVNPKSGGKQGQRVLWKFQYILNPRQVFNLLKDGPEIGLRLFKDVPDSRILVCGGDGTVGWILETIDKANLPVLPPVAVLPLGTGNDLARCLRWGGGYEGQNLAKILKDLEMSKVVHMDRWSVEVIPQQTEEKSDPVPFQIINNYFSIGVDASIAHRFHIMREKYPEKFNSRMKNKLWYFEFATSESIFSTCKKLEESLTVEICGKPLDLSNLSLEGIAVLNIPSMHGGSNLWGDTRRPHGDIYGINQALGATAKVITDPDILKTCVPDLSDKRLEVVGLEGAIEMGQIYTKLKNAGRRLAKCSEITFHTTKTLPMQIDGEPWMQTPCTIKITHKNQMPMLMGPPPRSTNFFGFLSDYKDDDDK

Broadly, the IC50 is the concentration that gives 50% inhibition. Read a low IC50 as greater potency in that assay. Take `Cn1c(=O)c(C#N)c(N2CCC(Oc3ccc(N4CCCCC4=O)cc3)CC2)c2ccccc21` [Example 23, 1-methyl-2-oxo-4-{4-[4-(2-oxopiperidin-1-yl)phenoxy]piperidin-1-yl}-1,2-dihydroquinoline-3-carbonitrile]: the IC50 amounted to 181 nM.
As for `CN1CCN(c2ccc(OC3CCN(c4c(C#N)c(=O)n(C)c5ccccc45)CC3)cc2)C(=O)C1` [Example 24, 1-methyl-4-{4-[4-(4-methyl-2-oxopiperazin-1-yl)phenoxy]piperidin-1-yl}-2-oxo-1,2-dihydroquinoline-3-carbonitrile], the midpoint of inhibition, the IC50, lay at 266 nM.
The compound `Cn1ccn(-c2ccc(OC3CCN(c4c(C#N)c(=O)n(C)c5ccccc45)CC3)cc2)c1=O` [Example 25, 1-methyl-4-{4-[4-(3-methyl-2-oxo-2,3-dihydro-1H-imidazol-1-yl)phenoxy]piperidin-1-yl}-2-oxo-1,2-dihydroquinoline-3-carbonitrile] showed an IC50 of 283 nM.
The same measure for `CN(C)C(=O)c1ccc(OC2CCN(c3c(C#N)c(=O)n(C)c4ccccc34)CC2)cc1` [Example 26, 4-{[1-(3-cyano-1-methyl-2-oxo-1,2-dihydroquinolin-4-yl)piperidin-4-yl]oxy}-N,N-dimethylbenzamide]: 415 nM; for `Cn1c(=O)c(C#N)c(N2CCC(Oc3cccc4ocnc34)CC2)c2ccccc21` [Example 27, 4-{4-[(1,3-benzoxazol-4-yl)oxy]piperidin-1-yl}-1-methyl-2-oxo-1,2-dihydroquinoline-3-carbonitrile]: 318 nM.
The same measure for `Cn1c(=O)c(C#N)c(N2CCC(Oc3cnc(C(F)(F)F)nc3)CC2)c2ccccc21` [Example 28, 1-methyl-2-oxo-4-(4-{[2-(trifluoromethyl)pyrimidin-5-yl]oxy}piperidin-1-yl)-1,2-dihydroquinoline-3-carbonitrile]: 521 nM; for `Cn1c(=O)c(C#N)c(N2CCC(Oc3ccc4cnoc4c3)CC2)c2ccccc21` [Example 29, 4-{4-[(1,2-benzoxazol-6-yl)oxy]piperidin-1-yl}-1-methyl-2-oxo-1,2-dihydroquinoline-3-carbonitrile]: 654 nM.
`Cn1c(=O)c(C#N)c(N2CCC(Oc3ccc(N=S(C)(C)=O)cc3)CC2)c2ccccc21` [Example 30, 4-[4-(4-{[dimethyl(oxo)-λ^6-sulfanylidene]amino}phenoxy)piperidin-1-yl]-1-methyl-2-oxo-1,2-dihydroquinoline-3-carbonitrile] gave a concentration for half-maximal inhibition (IC50) of 1530 nM.
The same measure for `COc1cc(C)ccc1OC1CCN(c2c(C#N)c(=O)n(C)c3ccccc23)CC1` [Example 31, 4-[4-(2-methoxy-4-methylphenoxy)piperidin-1-yl]-1-methyl-2-oxo-1,2-dihydroquinoline-3-carbonitrile]: 6.8 nM.
`Cn1c(=O)c(C#N)c(N2CCC(Oc3ccc(C#N)cc3)CC2)c2ccccc21` [Example 32, 4-[4-(4-cyanophenoxy)piperidin-1-yl]-1-methyl-2-oxo-1,2-dihydroquinoline-3-carbonitrile]: the IC50 amounted to 31 nM.
With `Cn1c(=O)c(C#N)c(N2CCC(Oc3ccccc3F)CC2)c2ccccc21` [Example 33, 4-[4-(2-fluorophenoxy)piperidin-1-yl]-1-methyl-2-oxo-1,2-dihydroquinoline-3-carbonitrile], the IC50 worked out at 13 nM.
The same measure for `Cn1c(=O)c(C#N)c(N2CCC(Oc3ccccc3C#N)CC2)c2ccccc21` [Example 34, 4-[4-(2-cyanophenoxy)piperidin-1-yl]-1-methyl-2-oxo-1,2-dihydroquinoline-3-carbonitrile]: 9 nM.
As to `Cn1c(=O)c(C#N)c(N2CCC(Oc3ccc(C(N)=O)cc3)CC2)c2ccccc21` [Example 35, 4-{[1-(3-cyano-1-methyl-2-oxo-1,2-dihydroquinolin-4-yl)piperidin-4-yl]oxy}benzamide], half-maximal inhibition (IC50) required 646 nM.
With `Cn1c(=O)c(C#N)c(N2CCC(Oc3ccccc3C(F)(F)F)CC2)c2ccccc21` [Example 36, 1-methyl-2-oxo-4-{4-[2-(trifluoromethyl)phenoxy]piperidin-1-yl}-1,2-dihydroquinoline-3-carbonitrile], 164 nM corresponded to half-maximal inhibition (IC50).
Turning to `Cn1c(=O)c(C#N)c(N2CCC(Oc3ccc(C4CC4)cc3)CC2)c2ccccc21` [Example 37, 4-[4-(4-cyclopropylphenoxy)piperidin-1-yl]-1-methyl-2-oxo-1,2-dihydroquinoline-3-carbonitrile], the IC50 came to 10 nM.
`Cn1c(=O)c(C#N)c(N2CCC(Oc3cccc(OC(F)(F)F)c3)CC2)c2ccccc21` [Example 38, 1-methyl-2-oxo-4-{4-[3-(trifluoromethoxy)phenoxy]piperidin-1-yl}-1,2-dihydroquinoline-3-carbonitrile] yielded an IC50 of 18 nM.
As to `Cn1c(=O)c(C#N)c(N2CCC(Oc3ccc(OC(F)F)cc3)CC2)c2ccccc21` [Example 39, 4-{4-[4-(difluoromethoxy)phenoxy]piperidin-1-yl}-1-methyl-2-oxo-1,2-dihydroquinoline-3-carbonitrile], half-maximal inhibition (IC50) required 4 nM.
In turn, `Cn1c(=O)c(C#N)c(N2CCC(C)(Oc3ccc([N+](=O)[O-])cc3)CC2)c2ccccc21` [Example 40, 1-methyl-4-[4-methyl-4-(4-nitrophenoxy)piperidin-1-yl]-2-oxo-1,2-dihydroquinoline-3-carbonitrile] yielded an IC50 of 11 nM.
Turning to `Cn1c(=O)c(C#N)c(N2CCC(C)(Oc3ccc(N)cc3)CC2)c2ccccc21` [Example 41, 4-[4-(4-aminophenoxy)-4-methylpiperidin-1-yl]-1-methyl-2-oxo-1,2-dihydroquinoline-3-carbonitrile], the half-inhibitory concentration (IC50) amounted to 173 nM.
`Cn1c(=O)c(C#N)c(N2CCC(C)(Oc3ccc(Br)cc3)CC2)c2ccccc21` [Example 42, 4-[4-(4-bromophenoxy)-4-methylpiperidin-1-yl]-1-methyl-2-oxo-1,2-dihydroquinoline-3-carbonitrile] came in with an IC50 of 27 nM.
As to `Cn1c(=O)c(C#N)c(N2CCC(Oc3ccc(S(C)(=O)=O)cc3)CC2)c2ccccc21` [Example 43, 4-{4-[4-(methanesulfonyl)phenoxy]piperidin-1-yl}-1-methyl-2-oxo-1,2-dihydroquinoline-3-carbonitrile], the IC50 was 339 nM.
For the compound `COCCOc1ccc(OC2CCN(c3c(C#N)c(=O)n(C)c4ccccc34)CC2)cc1` [Example 44, 4-{4-[4-(2-methoxyethoxy)phenoxy]piperidin-1-yl}-1-methyl-2-oxo-1,2-dihydroquinoline-3-carbonitrile], the 50% inhibitory concentration (IC50) amounted to 45 nM.
Compound `CN(C)c1ccc(OC2CCN(c3c(C#N)c(=O)n(C)c4ccccc34)CC2)cc1` [Example 45, 4-{4-[4-(dimethylamino)phenoxy]piperidin-1-yl}-1-methyl-2-oxo-1,2-dihydroquinoline-3-carbonitrile] returned an IC50 of 31 nM.
`COc1ccc(OC2CCN(c3c(C#N)c(=O)n(C)c4ccccc34)CC2)cc1` [Example 46, 4-[4-(4-methoxyphenoxy)piperidin-1-yl]-1-methyl-2-oxo-1,2-dihydroquinoline-3-carbonitrile] gave an IC50 of 32 nM.
Next, `CC(C)Oc1ccc(OC2CCN(c3c(C#N)c(=O)n(C)c4ccccc34)CC2)cc1` [Example 47, 1-methyl-2-oxo-4-(4-{4-[(propan-2-yl)oxy]phenoxy}piperidin-1-yl)-1,2-dihydroquinoline-3-carbonitrile]: 8.6 nM; `Cn1c(=O)c(C(N)=O)c(N2CCC(Oc3ccc(OC(F)(F)F)cc3)CC2)c2ccccc21` [Example 48, 1-methyl-2-oxo-4-{4-[4-(trifluoromethoxy)phenoxy]piperidin-1-yl}-1,2-dihydroquinoline-3-carboxamide]: 0.9 nM; `Cn1c(=O)c(C(N)=O)c(N2CCC(Oc3cccc(Cl)c3)CC2)c2ccccc21` [Example 49, 4-[4-(3-chlorophenoxy)piperidin-1-yl]-1-methyl-2-oxo-1,2-dihydroquinoline-3-carboxamide]: 1.7 nM.
In turn, `Cn1c(=O)c(C(N)=O)c(N2CCC(Oc3ccc(Cl)cc3)CC2)c2ccccc21` [Example 50, 4-[4-(4-chlorophenoxy)piperidin-1-yl]-1-methyl-2-oxo-1,2-dihydroquinoline-3-carboxamide] came in with a concentration for half-maximal inhibition (IC50) of 3.1 nM.
`CCOC(=O)c1ccc(OC2CCN(c3c(C(N)=O)c(=O)n(C)c4ccccc34)CC2)cc1` [Example 51, ethyl 4-{[1-(3-carbamoyl-1-methyl-2-oxo-1,2-dihydroquinolin-4-yl)piperidin-4-yl]oxy}benzoate] gave an IC50 of 6.1 nM.
